The experiment concerns the target Tyrosine-protein kinase BTK (Homo sapiens) (UniProt Q06187). Description: inhibitors of human BTK tyrosine kinase activity – biochemical, Z'-LYTE, FRET readout, direct format, dose response (AID 1671224). Particulars: recombinant BTK, Z'-LYTE FRET peptide phosphorylation.

The record followed here is PubChem BioAssay AID1671224.

Tyrosine-protein kinase BTK (Homo sapiens), sequence (Q06187 whole entry, looked up): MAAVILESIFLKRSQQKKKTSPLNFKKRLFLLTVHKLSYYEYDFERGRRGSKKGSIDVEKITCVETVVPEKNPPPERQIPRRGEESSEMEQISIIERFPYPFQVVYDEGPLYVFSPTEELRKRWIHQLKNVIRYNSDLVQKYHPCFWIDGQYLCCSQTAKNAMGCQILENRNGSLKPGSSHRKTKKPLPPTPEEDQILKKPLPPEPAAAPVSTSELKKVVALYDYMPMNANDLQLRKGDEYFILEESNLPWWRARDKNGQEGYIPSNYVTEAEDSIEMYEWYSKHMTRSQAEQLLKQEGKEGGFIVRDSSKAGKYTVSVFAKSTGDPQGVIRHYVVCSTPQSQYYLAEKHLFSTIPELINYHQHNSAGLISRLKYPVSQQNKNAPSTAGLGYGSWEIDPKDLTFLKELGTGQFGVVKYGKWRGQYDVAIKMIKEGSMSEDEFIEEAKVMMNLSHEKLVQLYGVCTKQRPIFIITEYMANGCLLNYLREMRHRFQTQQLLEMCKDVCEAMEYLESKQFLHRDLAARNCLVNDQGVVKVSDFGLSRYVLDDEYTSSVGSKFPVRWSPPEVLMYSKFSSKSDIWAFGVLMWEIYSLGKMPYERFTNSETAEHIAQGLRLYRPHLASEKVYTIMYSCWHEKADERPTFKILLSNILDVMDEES

Broadly, the IC50 is the concentration that inhibits the measured activity by half. For the compound `COc1cc2ncnc(Nc3cccc(Cl)c3)c2cc1OC`, the IC50 is 3.61 µM.
